In data set [1] the test system is PC-9. Nature of the data set: Cytotoxicity against human PC-9 cells harboring EGFR mutant assessed as inhibition of cell growth. The format is functional, cell-based.
The subject of data set [2] is PC-9. Nature of the data set: Cytotoxicity against human PC-9 cells harboring EGFR mutant assessed as inhibition of cell growth incubated for 72 hrs by ATP-based luminescence CellTiter-Glo assay. It is filed as functional. The settings on record: PC-9, 72 h. On the technique in general: ATP-based viability assays read luminescence as a measure of living cells.
The subject of data set [3] is PC-9. Nature of the data set: Additive cytotoxicity against human PC-9 cells assessed as reduction in cell viability at 4 nM incubated in presence of afatinib. The format is functional, cell-based.
The test system of data set [4] is BEAS-2B. Nature of the data set: Cytotoxicity against human BEAS-2B cells assessed as reduction in cell viability at 4 nM. The format is toxicity, cell-based. Conditions: 0.004 µM.
The test system of data set [5] is BEAS-2B. Nature of the data set: Cytotoxicity against human BEAS-2B cells assessed as reduction in cell viability at 4 nM incubated in presence of afatinib. The settings on record: 0.004 µM. The format is toxicity, cell-based.
The target in data set [6] is Epidermal growth factor receptor (Homo sapiens) (UniProt P00533). Nature of the data set: Inhibition of EGFR (unknown origin) assessed as residual activity relative to control.
Epidermal growth factor receptor (Homo sapiens), sequence (P00533 whole entry): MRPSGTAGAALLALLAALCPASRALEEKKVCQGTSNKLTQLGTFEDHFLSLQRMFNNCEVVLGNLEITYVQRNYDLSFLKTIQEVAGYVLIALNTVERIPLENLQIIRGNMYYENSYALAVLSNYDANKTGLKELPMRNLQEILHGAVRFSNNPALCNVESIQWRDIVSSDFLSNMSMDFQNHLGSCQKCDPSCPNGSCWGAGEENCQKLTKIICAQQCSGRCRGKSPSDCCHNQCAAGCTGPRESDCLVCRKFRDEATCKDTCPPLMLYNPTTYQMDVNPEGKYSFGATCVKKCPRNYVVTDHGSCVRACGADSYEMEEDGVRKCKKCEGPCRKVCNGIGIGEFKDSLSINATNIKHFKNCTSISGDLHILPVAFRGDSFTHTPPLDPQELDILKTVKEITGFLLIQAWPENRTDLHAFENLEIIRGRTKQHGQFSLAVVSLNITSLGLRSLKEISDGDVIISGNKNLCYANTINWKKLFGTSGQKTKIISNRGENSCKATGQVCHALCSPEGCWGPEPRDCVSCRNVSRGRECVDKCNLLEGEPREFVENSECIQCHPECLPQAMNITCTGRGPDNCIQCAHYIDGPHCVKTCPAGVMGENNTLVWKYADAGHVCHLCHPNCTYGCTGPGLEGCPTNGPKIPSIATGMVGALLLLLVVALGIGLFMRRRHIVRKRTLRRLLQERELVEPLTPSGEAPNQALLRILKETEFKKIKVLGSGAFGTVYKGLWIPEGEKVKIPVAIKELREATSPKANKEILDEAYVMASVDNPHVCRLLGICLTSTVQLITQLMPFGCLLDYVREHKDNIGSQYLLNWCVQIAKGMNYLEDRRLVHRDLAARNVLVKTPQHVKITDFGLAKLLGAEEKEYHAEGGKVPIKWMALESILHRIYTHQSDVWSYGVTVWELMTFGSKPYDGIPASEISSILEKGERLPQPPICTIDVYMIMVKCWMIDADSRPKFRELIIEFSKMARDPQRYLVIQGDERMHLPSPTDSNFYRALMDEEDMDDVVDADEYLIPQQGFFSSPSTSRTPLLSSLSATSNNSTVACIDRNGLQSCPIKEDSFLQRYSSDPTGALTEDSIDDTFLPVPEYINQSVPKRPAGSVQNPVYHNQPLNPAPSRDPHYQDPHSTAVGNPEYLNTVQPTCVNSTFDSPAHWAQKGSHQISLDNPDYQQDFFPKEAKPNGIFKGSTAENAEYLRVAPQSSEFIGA
In data set [7] the target is Tyrosine-protein kinase Fer (Homo sapiens) (UniProt P16591). Nature of the data set: Inhibition of FER (unknown origin) at 10 nM.
Tyrosine-protein kinase Fer (Homo sapiens), sequence (P16591 whole entry, looked up): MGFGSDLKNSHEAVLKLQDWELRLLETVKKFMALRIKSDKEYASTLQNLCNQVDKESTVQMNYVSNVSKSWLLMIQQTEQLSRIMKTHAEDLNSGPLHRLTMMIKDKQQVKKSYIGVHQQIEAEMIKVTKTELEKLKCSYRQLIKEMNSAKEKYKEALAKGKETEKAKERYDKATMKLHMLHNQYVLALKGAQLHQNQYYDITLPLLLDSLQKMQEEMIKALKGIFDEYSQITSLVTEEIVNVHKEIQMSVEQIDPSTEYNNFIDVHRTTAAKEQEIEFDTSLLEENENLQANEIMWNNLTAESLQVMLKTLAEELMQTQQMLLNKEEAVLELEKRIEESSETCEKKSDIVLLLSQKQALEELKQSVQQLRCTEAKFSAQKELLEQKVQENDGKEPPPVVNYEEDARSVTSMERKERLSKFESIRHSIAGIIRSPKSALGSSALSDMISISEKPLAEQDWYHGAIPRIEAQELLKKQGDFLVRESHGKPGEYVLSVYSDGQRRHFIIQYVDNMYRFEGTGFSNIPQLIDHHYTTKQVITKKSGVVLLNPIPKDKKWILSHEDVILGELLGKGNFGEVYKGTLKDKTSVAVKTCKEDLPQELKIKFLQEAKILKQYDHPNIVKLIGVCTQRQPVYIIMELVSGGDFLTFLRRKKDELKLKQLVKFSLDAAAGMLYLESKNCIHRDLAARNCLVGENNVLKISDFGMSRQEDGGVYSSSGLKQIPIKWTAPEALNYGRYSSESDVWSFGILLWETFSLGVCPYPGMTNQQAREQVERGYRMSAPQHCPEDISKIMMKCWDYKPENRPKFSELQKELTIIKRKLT
For data set [8], the target named is ALK tyrosine kinase receptor (Homo sapiens) (UniProt Q9UM73). Nature of the data set: Inhibition of ALK (unknown origin) at 10 nM.
ALK tyrosine kinase receptor (Homo sapiens), sequence (Q9UM73 19-1620 limits assumed): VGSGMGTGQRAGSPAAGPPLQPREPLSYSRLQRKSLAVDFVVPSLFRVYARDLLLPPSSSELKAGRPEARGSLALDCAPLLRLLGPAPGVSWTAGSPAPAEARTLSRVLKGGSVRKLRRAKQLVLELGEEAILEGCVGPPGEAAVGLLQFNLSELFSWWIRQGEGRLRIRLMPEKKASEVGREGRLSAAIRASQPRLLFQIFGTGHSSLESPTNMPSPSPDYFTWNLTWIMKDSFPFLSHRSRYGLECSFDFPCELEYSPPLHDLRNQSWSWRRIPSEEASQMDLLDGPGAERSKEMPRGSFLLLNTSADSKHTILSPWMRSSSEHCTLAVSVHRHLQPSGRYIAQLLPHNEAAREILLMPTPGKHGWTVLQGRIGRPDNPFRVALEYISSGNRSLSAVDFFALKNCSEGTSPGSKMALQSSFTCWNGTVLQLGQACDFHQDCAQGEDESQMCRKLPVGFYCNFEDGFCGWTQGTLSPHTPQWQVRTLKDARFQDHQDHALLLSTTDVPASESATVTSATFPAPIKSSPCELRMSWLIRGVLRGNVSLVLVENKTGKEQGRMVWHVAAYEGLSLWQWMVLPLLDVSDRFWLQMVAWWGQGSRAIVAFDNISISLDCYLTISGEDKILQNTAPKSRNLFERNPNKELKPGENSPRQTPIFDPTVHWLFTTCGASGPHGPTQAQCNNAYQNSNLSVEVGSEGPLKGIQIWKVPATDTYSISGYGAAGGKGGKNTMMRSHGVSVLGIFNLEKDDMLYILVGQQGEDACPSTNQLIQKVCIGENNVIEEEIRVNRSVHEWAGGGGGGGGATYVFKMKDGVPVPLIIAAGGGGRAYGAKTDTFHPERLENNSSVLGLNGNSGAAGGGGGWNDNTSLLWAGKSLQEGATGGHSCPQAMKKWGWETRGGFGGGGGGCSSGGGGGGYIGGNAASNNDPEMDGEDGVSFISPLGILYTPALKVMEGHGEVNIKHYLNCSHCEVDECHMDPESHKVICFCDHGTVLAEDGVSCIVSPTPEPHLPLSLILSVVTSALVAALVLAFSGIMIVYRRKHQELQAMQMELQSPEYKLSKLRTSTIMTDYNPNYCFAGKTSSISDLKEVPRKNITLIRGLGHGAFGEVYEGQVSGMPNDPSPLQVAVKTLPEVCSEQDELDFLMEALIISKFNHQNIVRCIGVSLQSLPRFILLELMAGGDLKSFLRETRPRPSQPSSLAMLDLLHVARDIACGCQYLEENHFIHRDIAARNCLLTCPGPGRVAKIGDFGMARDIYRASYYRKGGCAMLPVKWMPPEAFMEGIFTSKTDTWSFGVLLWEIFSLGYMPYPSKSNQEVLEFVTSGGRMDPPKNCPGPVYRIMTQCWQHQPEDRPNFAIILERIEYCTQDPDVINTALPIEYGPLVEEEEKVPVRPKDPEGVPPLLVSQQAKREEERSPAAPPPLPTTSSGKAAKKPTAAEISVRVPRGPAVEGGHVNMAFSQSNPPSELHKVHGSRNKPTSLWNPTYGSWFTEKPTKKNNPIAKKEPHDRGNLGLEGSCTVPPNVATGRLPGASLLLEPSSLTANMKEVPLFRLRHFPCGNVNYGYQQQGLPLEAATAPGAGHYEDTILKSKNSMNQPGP
Data set [9] addresses Serine/threonine-protein kinase pim-1 (Homo sapiens) (UniProt P11309). Nature of the data set: Inhibition of Moloney murine leukemia virus Proviral integration site 1 at 10 nM.
The test system of data set [10] is PC-9. Nature of the data set: Additive cytotoxicity against human PC-9 cells assessed as reduction in cell viability at 34 nM incubated in presence of afatinib. It is filed as functional, cell-based.
Data set [11] deals with BEAS-2B. Nature of the data set: Cytotoxicity against human BEAS-2B cells assessed as reduction in cell viability at 34 nM. The format is toxicity, cell-based. The settings on record: 0.034 µM.
Data set [12] concerns BEAS-2B. Nature of the data set: Cytotoxicity against human BEAS-2B cells assessed as reduction in cell viability at 34 nM incubated in presence of afatinib. It is filed as toxicity, cell-based. The settings on record: 0.034 µM.
Data set [13] has as its target Tyrosine-protein kinase Fer (Homo sapiens) (UniProt P16591). Nature of the data set: Inhibition of FER (unknown origin) at 50 nM.
The target in data set [14] is ALK tyrosine kinase receptor (Homo sapiens) (UniProt Q9UM73). Nature of the data set: Inhibition of ALK (unknown origin) at 50 nM.
Data set [15] addresses Serine/threonine-protein kinase pim-1 (Homo sapiens) (UniProt P11309). Nature of the data set: Inhibition of Moloney murine leukemia virus Proviral integration site 1 at 50 nM.

The record followed here is ChEMBL document CHEMBL5223144, “Second generation Spautin-1 analogues targeting EGFR-mutant non-small cell lung cancer cells” (Bioorg Med Chem Lett, 2023).

SMILES strings stand for the structures. Activity calls are given as the source filed them. The calls are words filed in the database; no cut-off is given here.

The IC50 is the concentration at which inhibition is half-maximal. Turning to `Fc1ccc2ncnc(Nc3ccc4cc(Br)ccc4c3)c2c1`, the IC50 in the data set on PC-9 [1] is above 5 µM. For the molecule `Fc1ccc2ncnc(NCCc3ccc(-c4cccnc4)cc3)c2c1`, in the data set on PC-9 [1], the 50% inhibitory concentration (IC50) was found to be 1.04 µM. The same measure, in the same setting: in the case of `Fc1ccc2ncnc(NCCc3cccc(-c4ccccc4)c3)c2c1` it was 0.668 µM.

`Fc1ccc2ncnc(NCCc3ccc(OCc4ccccc4)cc3)c2c1`: the IC50 in the data set on PC-9 [1] turned out to be 0.03 µM. The same measure, in the same setting: in the case of `Fc1ccc2ncnc(NCCc3ccc(-c4ccco4)cc3)c2c1` it was 0.636 µM; in that of `CN(C)C/C=C/C(=O)Nc1cc2c(Nc3ccc(F)c(Cl)c3)ncnc2cc1O[C@H]1CCOC1` [AFATINIB], 0.005 µM.

On to `Fc1ccc(CNc2ncnc3ccc(F)cc23)cc1`, for which the IC50 in the data set on PC-9 [2] is above 5 µM. Take `Fc1ccc2ncnc(NCCc3ccc(-c4ccoc4)cc3)c2c1`: in the data set on PC-9 [1], the IC50 turned out to be 0.288 µM. On the same count and under the same terms, in the case of `COc1ccccc1-c1ccc(CCNc2ncnc3ccc(F)cc23)cc1` it was 0.105 µM; in that of `Fc1ccc2ncnc(NCCc3ccc(I)cc3)c2c1`, 0.261 µM. Still for that read-out and setting: in the case of `Fc1ccc2ncnc(NCCc3ccc(-c4cccc5ccccc45)cc3)c2c1` it was 0.291 µM; in that of `Fc1ccc2ncnc(NCCc3ccccc3Br)c2c1`, 0.892 µM. On the same count and under the same terms, in the case of `Fc1ccc2ncnc(NCCc3ccc(Oc4ccccc4)cc3)c2c1` it was 0.014 µM; in that of `Fc1ccc2ncnc(NCCc3ccc(-c4ccccc4F)cc3)c2c1`, 0.066 µM. With `CC(C)(C)c1ccc(CCNc2ncnc3ccc(F)cc23)cc1`, the concentration for half-maximal inhibition (IC50) in the data set on PC-9 [1] came to 0.045 µM. On the same count and under the same terms, the value for `Fc1ccc2ncnc(NCCc3ccc(-c4cccc(F)c4F)cc3)c2c1` was 0.076 µM; that for `Fc1ccc2ncnc(NCCc3ccc(-c4ccc5ccccc5c4)cc3)c2c1` was 0.101 µM; that for `Fc1ccc2ncnc(NCCc3ccc(-c4ccncc4)cc3)c2c1` was 0.408 µM. As for `COc1cccc(-c2ccc(CCNc3ncnc4ccc(F)cc34)cc2)c1`, the IC50 with PC-9 [1] came to 0.067 µM. `Fc1ccc2ncnc(NCCc3ccc(-c4ccccc4)cc3)c2c1`: the IC50 with PC-9 [1] amounted to 0.077 µM. As for `COc1ccc(-c2ccc(CCNc3ncnc4ccc(F)cc34)cc2)cc1`, the 50% inhibitory concentration (IC50) in the data set on PC-9 [1] was found to be 0.069 µM.

Consider `Fc1ccc2ncnc(NCCc3ccc(-c4ccc5oc6ccccc6c5c4)cc3)c2c1`, for which the IC50 with PC-9 [1] came to 0.079 µM. As for `Fc1ccc2ncnc(NCCc3ccc(-c4ccc5c(c4)OCCO5)cc3)c2c1`, the IC50 with PC-9 [1] amounted to 0.069 µM. Turning to `Fc1ccc2ncnc(NCCc3ccc(Br)cc3)c2c1`, the IC50 with PC-9 [2] stood at 0.207 µM. For `Fc1ccc2ncnc(NCCc3ccccc3-c3ccccc3)c2c1`, the IC50 with PC-9 [1] was above 5 µM.

With `Cc1ccc(-c2ccc(CCNc3ncnc4ccc(F)cc34)cc2)cc1`, in the data set on PC-9 [1], the concentration for half-maximal inhibition (IC50) is 0.049 µM. On the same count and under the same terms, in the case of `Fc1ccc2ncnc(NCCc3ccc(-c4ccc(C(F)(F)F)cc4)cc3)c2c1` it was 0.131 µM.

In the case of `Fc1ccc(Oc2ccc(CCNc3ncnc4ccc(F)cc34)cc2)cc1`, in the data set on PC-9 [1], the concentration for half-maximal inhibition (IC50) turned out to be 0.004 µM. Besides, the outcome with PC-9 [3] was Active. In addition, the Activity result with BEAS-2B [4] was “Non-Toxic”; with BEAS-2B [5] it was “Non-Toxic”; in [6], above 90%. Moreover, the inhibition result in [7], in data set [8] and in data set [9] was “Active” throughout. On to `Fc1ccc2ncnc(NCCc3ccc(-c4ccc(Oc5ccccc5)cc4)cc3)c2c1`, for which the IC50 in the data set with PC-9 [1] was 0.28 µM. On the same count and under the same terms, the value for `Fc1ccc2ncnc(NCCc3cccc(Br)c3)c2c1` was 0.685 µM; that for `Fc1ccc2ncnc(NCCc3ccc(-c4ccc(Cl)cc4)cc3)c2c1` was 0.044 µM; that for `Fc1cccc(-c2ccc(CCNc3ncnc4ccc(F)cc34)cc2)c1` was 0.618 µM. Consider `Fc1ccc(-c2ccc(CCNc3ncnc4ccc(F)cc34)cc2)c(F)c1`, for which, in the data set with PC-9 [1], the concentration for half-maximal inhibition (IC50) worked out at 0.034 µM. The result in the data set with PC-9 [10] was Active. Moreover, the results for the Activity result (with BEAS-2B [11]; in the data set with BEAS-2B [12]; in data set [6]) were “Non-Toxic”, “Non-Toxic” and above 90%, respectively. Besides, the inhibition entry in data set [13], in data set [14] and in data set [15] was “Active” in each case. Turning to `COc1ccc(Oc2ccc(CCNc3ncnc4ccc(F)cc34)cc2)cc1`, the half-inhibitory concentration (IC50) with PC-9 [1] was found to be 0.007 µM.

On to `Fc1ccc2ncnc(NC3CCc4cc(Br)ccc4C3)c2c1` (centres undefined), for which the IC50 in the data set on PC-9 [1] came to 0.718 µM. On the same count and under the same terms, the value for `CC(C)(C)Oc1ccc(-c2ccc(CCNc3ncnc4ccc(F)cc34)cc2)cc1` was 1.7 µM. Still for that read-out and setting: the value for `Fc1ccc2ncnc(NCCc3ccc4ccccc4c3)c2c1` was 0.064 µM; that for `Fc1ccc2ncnc(NCCc3ccc(-c4ccc(F)c(F)c4)cc3)c2c1` was 0.138 µM; that for `CC(C)(C)c1ccc(-c2ccc(CCNc3ncnc4ccc(F)cc34)cc2)cc1` was 0.363 µM. Same read-out and setting: the value for `Fc1ccc(-c2ccc(CCNc3ncnc4ccc(F)cc34)cc2)cc1` was 0.16 µM.
